Experimental data taken from PMC4809600, “The Influence of Chronic Wound Extracts on Inflammatory Cytokine and Histatin Stability” (PLoS ONE, 2016).
Read-outs that look alike come from different tables or passages of the source. Where no end group is shown, it is not given here.

Test: Dose response of Hst1 and PIC in the presence of CWE
Type: in vitro ADME, human
Conditions: CWE 1 mg/ml, 37°C, CZE, 0 h = 100%
Procedure: For the dose response of PIC and Hst1, three different concentrations of Hst1 were prepared (0.5 mg/ml, 1 mg/ml and 2 mg/ml) and two different concentrations of PIC were used. The final PIC concentration in the CWE (1 mg/ml) sample was 1:140 v/v (same as above) or 1:280 v/v (2x diluted). Mixtures were incubated at 37°C and samples were taken at 0, 24 and 96 h.
The samples were analyzed with a BioFocus 2000 capillary zone electrophoresis system (Bio-Rad Laboratories, Hercules, CA, USA) equipped with an uncoated fused-silica capillary of internal diameter 50 μm and a length of 24 cm. Samples were loaded by pressure injection (5 psi/sec). Separation was performed at 10 kV (cathode at the detector side) at 20°C using 0.1 M phosphate buffer (pH 2.5) as electrolyte and monitored continuously at 200 nm. Peaks were quantified with the BioFocus Integrator software. In order to quantify the percentage of intact peptides remaining after incubation with CWE, the ratios of histatins, rhIL-6 or rhCXCL8 to internal standard was set at 100% at 0h, and the ratios at the other incubation time points were related to this.

Sequence: DSHEKRHHGYRRKFHEKHHSHREFPFYGDYGSNYLYDN [Hst1]
- Intact Hst1, CWE + PIC 1:140 24h (Hst1 0.5 mg/ml, PIC:CWE 1:140 v/v, 24 h, experiment 1 of 3): 73.4639%
- Intact Hst1, CWE + PIC 1:140 24h (Hst1 0.5 mg/ml, PIC:CWE 1:140 v/v, 24 h, experiment 2 of 3): 69.7277%
- Intact Hst1, CWE + PIC 1:140 24h (Hst1 0.5 mg/ml, PIC:CWE 1:140 v/v, 24 h, experiment 3 of 3): 63.6084%
- Intact Hst1, CWE + PIC 1:140 96h (Hst1 0.5 mg/ml, PIC:CWE 1:140 v/v, experiment 1 of 3): 54.3382%
- Intact Hst1, CWE + PIC 1:140 96h (Hst1 0.5 mg/ml, PIC:CWE 1:140 v/v, experiment 2 of 3): 46.1353%
- Intact Hst1, CWE + PIC 1:280 24h (Hst1 0.5 mg/ml, PIC:CWE 1:280 v/v, 24 h, experiment 1 of 3): 49.1645%
- Intact Hst1, CWE + PIC 1:280 24h (Hst1 0.5 mg/ml, PIC:CWE 1:280 v/v, 24 h, experiment 2 of 3): 30.5445%
- Intact Hst1, CWE + PIC 1:280 96h (Hst1 0.5 mg/ml, PIC:CWE 1:280 v/v, experiment 1 of 3): 24.1883%
- Intact Hst1, CWE + PIC 1:280 96h (Hst1 0.5 mg/ml, PIC:CWE 1:280 v/v, experiment 2 of 3): 18.189%
- Intact Hst1, CWE + PIC 1:140 24h (Hst1 1 mg/ml, PIC:CWE 1:140 v/v, 24 h, experiment 3 of 3): 58.7589%
- Intact Hst1, CWE + PIC 1:140 96h (Hst1 1 mg/ml, PIC:CWE 1:140 v/v, experiment 3 of 3): 38.9986%
- Intact Hst1, CWE + PIC 1:280 24h (Hst1 1 mg/ml, PIC:CWE 1:280 v/v, 24 h, experiment 3 of 3): 38.2658%
- Intact Hst1, CWE + PIC 1:280 96h (Hst1 1 mg/ml, PIC:CWE 1:280 v/v, experiment 3 of 3): 25.9997%
- Intact Hst1, CWE + PIC 1:140 24h (Hst1 2 mg/ml, PIC:CWE 1:140 v/v, 24 h, experiment 1 of 3): 77.6287%
- Intact Hst1, CWE + PIC 1:140 24h (Hst1 2 mg/ml, PIC:CWE 1:140 v/v, 24 h, experiment 2 of 3): 76.5019%
- Intact Hst1, CWE + PIC 1:140 24h (Hst1 2 mg/ml, PIC:CWE 1:140 v/v, 24 h, experiment 3 of 3): 68.9738%
- Intact Hst1, CWE + PIC 1:140 96h (Hst1 2 mg/ml, PIC:CWE 1:140 v/v, experiment 1 of 3): 61.2993%
- Intact Hst1, CWE + PIC 1:140 96h (Hst1 2 mg/ml, PIC:CWE 1:140 v/v, experiment 2 of 3): 47.6383%
- Intact Hst1, CWE + PIC 1:140 96h (Hst1 2 mg/ml, PIC:CWE 1:140 v/v, experiment 3 of 3): 45.7764%
- Intact Hst1, CWE + PIC 1:280 24h (Hst1 2 mg/ml, PIC:CWE 1:280 v/v, 24 h, experiment 1 of 3): 61.8953%
- Intact Hst1, CWE + PIC 1:280 24h (Hst1 2 mg/ml, PIC:CWE 1:280 v/v, 24 h, experiment 2 of 3): 55.6946%
- Intact Hst1, CWE + PIC 1:280 24h (Hst1 2 mg/ml, PIC:CWE 1:280 v/v, 24 h, experiment 3 of 3): 47.0948%
- Intact Hst1, CWE + PIC 1:280 96h (Hst1 2 mg/ml, PIC:CWE 1:280 v/v, experiment 1 of 3): 42.3498%
- Intact Hst1, CWE + PIC 1:280 96h (Hst1 2 mg/ml, PIC:CWE 1:280 v/v, experiment 2 of 3): 34.4262%
- Intact Hst1, CWE + PIC 1:280 96h (Hst1 2 mg/ml, PIC:CWE 1:280 v/v, experiment 3 of 3): 43.3131%
- remaining at 96 h, 0.5 mg/ml (human, chronic wound extracts (CWE), with protease inhibitor cocktail (PIC), PIC:CWE 1:140 v/v, Hst1 0.5 mg/ml, PIC:CWE 1:140 v/v, experiment 3 of 3, read-out: Intact Hst1, CWE + PIC 1:140 96h): 37.5%
- remaining at 24 h, 1 mg/ml (human, chronic wound extracts (CWE), with protease inhibitor cocktail (PIC), PIC:CWE 1:140 v/v, Hst1 1 mg/ml, PIC:CWE 1:140 v/v, 24 h, experiment 1 of 3, read-out: Intact Hst1, CWE + PIC 1:140 24h): 76.2%
- remaining at 24 h, 1 mg/ml (human, chronic wound extracts (CWE), with protease inhibitor cocktail (PIC), PIC:CWE 1:140 v/v, Hst1 1 mg/ml, PIC:CWE 1:140 v/v, 24 h, experiment 2 of 3, read-out: Intact Hst1, CWE + PIC 1:140 24h): 67%
- remaining at 96 h, 1 mg/ml (human, chronic wound extracts (CWE), with protease inhibitor cocktail (PIC), PIC:CWE 1:140 v/v, Hst1 1 mg/ml, PIC:CWE 1:140 v/v, experiment 1 of 3, read-out: Intact Hst1, CWE + PIC 1:140 96h): 53.2%
- remaining at 96 h, 1 mg/ml (human, chronic wound extracts (CWE), with protease inhibitor cocktail (PIC), PIC:CWE 1:140 v/v, Hst1 1 mg/ml, PIC:CWE 1:140 v/v, experiment 2 of 3, read-out: Intact Hst1, CWE + PIC 1:140 96h): 43.5%
- remaining at 24 h, 0.5 mg/ml (human, chronic wound extracts (CWE), with protease inhibitor cocktail (PIC), PIC:CWE 1:280 v/v, Hst1 0.5 mg/ml, PIC:CWE 1:280 v/v, 24 h, experiment 3 of 3, read-out: Intact Hst1, CWE + PIC 1:280 24h): 34.4%
- remaining at 96 h, 0.5 mg/ml (human, chronic wound extracts (CWE), with protease inhibitor cocktail (PIC), PIC:CWE 1:280 v/v, Hst1 0.5 mg/ml, PIC:CWE 1:280 v/v, experiment 3 of 3, read-out: Intact Hst1, CWE + PIC 1:280 96h): 20.3%
- remaining at 24 h, 1 mg/ml (human, chronic wound extracts (CWE), with protease inhibitor cocktail (PIC), PIC:CWE 1:280 v/v, Hst1 1 mg/ml, PIC:CWE 1:280 v/v, 24 h, experiment 1 of 3, read-out: Intact Hst1, CWE + PIC 1:280 24h): 60.2%
- remaining at 24 h, 1 mg/ml (human, chronic wound extracts (CWE), with protease inhibitor cocktail (PIC), PIC:CWE 1:280 v/v, Hst1 1 mg/ml, PIC:CWE 1:280 v/v, 24 h, experiment 2 of 3, read-out: Intact Hst1, CWE + PIC 1:280 24h): 51.5%
- remaining at 96 h, 1 mg/ml (human, chronic wound extracts (CWE), with protease inhibitor cocktail (PIC), PIC:CWE 1:280 v/v, Hst1 1 mg/ml, PIC:CWE 1:280 v/v, experiment 1 of 3, read-out: Intact Hst1, CWE + PIC 1:280 96h): 37%
- remaining at 96 h, 1 mg/ml (human, chronic wound extracts (CWE), with protease inhibitor cocktail (PIC), PIC:CWE 1:280 v/v, Hst1 1 mg/ml, PIC:CWE 1:280 v/v, experiment 2 of 3, read-out: Intact Hst1, CWE + PIC 1:280 96h): 41.5%
